This note sets out measurements from patent US20240360146A1, “BRUTON'S TYROSINE KINASE AND MUTANT DEGRADER, COMPOSITION AND APPLICATION THEREOF” (HANGZHOU HEALZEN THERAPEUTICS CO., LTD., priority 2021, published 2024).

SMILES strings stand for the structures.

The target of one data set is T1, BTK (Homo sapiens, UniProt Q06187).
T1 construct: endogenous in cells; host or cells: Mino cells
Put plainly: BTK degradation activity test in Mino cells. The conditions noted are these: 16 h incubation, Western blot or Elisa. The format is cell-based. In a few lines: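 DC50 derived by curve fitting of BTK degradation rates versus untreated control across compound concentrations. Mino cells were exposed for 16 h; BTK levels in lysates, normalised via BCA protein, measured by Western blot or ELISA.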
For orientation: A western blot detects proteins with antibodies after separation by electrophoresis.

The test system of a further data set is OCI-LY10 cells. Put plainly: Inhibitory activity on OCI-LY10 cell proliferation (MTS). In kind it is cell-based. To be noted: Homo sapiens, 72 h. In a few lines:
(§1)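 Cells seeded at 10000/well, treated with compounds from 1000 nM (4-fold, 8 points) for 72 h (OCI-LY10) or 168 h (Mino) at 37° C. MTS added for 2 h, stopped with SDS, absorbance read at 490 and 650 nm; IC50 from dose-response fit.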

For a further data set, the system named is Mino cells. Put plainly: Inhibitory activity on Mino cell proliferation (MTS). To be noted: Homo sapiens, 168 h incubation. The format is cell-based. Summed up: as §1
Data set [1] is described as follows: Stability of compounds in human liver microsome. In kind it is in vitro ADME. To be noted: human liver microsomes, NADPH, 37° C., sampling 0-120 min; read-out: Human liver microsome T1/2. The protocol:
Compound to be tested: the compound to be tested (1 mg) was dissolved in DMSO (10 mL) to formulate to 0.1 mg/mL.
Internal standard compound: the internal standard compound (1 mg) was dissolved in DMSO (10 mL), 10 μL was taken and diluted to 10 mL to formulate to 100 ng/mL.
NADPH solution: NADPH (2.08 mg) was dissolved in PBS (50 μL) buffer to formulate to 50 mM.
Under the condition of ice bath, 1 mg of human liver microparticles was add to PBS (1 mL) buffer, then NADPH (20 μL) was added, and incubated at 37° C. for 5 min. 10 μL of the compound to be tested was added, and then samples were taken at 0, 15, 30, 60 and 120 min respectively. 10 μL of the solution was taken with a pipette each time and added to 490 μL of the solution containing the internal standard compound. The resulting solution was vortexed and then placed on ice, and then sampling at another time point continues. All samples were centrifuged at 10,000 rpm for 10 min, and the supernatant was taken for LC/MS testing. The metabolism of the compound in liver microsomes was calculated based on the peak area.
On the technique in general: Liver microsomes are vesicles of endoplasmic reticulum, rich in cytochrome P450 enzymes.

T1 sequence (Q06187 whole entry): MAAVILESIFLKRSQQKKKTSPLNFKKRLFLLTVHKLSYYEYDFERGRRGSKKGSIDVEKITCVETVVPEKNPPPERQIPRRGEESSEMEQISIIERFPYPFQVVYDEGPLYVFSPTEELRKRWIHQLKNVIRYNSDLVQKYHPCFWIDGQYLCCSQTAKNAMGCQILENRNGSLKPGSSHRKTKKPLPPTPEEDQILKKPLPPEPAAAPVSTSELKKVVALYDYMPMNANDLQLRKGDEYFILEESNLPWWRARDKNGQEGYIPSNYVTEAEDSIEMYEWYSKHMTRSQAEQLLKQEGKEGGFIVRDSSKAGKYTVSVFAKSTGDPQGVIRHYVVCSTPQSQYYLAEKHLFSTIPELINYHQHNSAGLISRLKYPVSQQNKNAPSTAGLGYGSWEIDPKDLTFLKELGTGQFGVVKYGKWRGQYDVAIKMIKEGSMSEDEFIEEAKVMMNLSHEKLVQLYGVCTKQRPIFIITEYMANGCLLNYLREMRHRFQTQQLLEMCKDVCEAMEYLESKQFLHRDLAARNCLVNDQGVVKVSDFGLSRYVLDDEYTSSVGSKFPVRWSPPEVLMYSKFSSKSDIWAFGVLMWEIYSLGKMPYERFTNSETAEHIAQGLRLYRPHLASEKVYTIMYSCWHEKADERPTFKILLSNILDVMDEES

At BTK, `CN1CCN([C@@H]2CCCN(c3nnc(C(N)=O)c(Nc4ccc(C5CCN(CC6CCN(c7cc8c(cc7F)C(=O)N(C7CCC(=O)NC7=O)C8=O)C6)CC5)cc4)n3)C2)C1=O` (stereo partly drawn) [Compound 126, 5-((4-(1-((1-(2-(2,6-dioxopiperidin-3-yl)-6-fluoro-1,3-dioxoisoindolin-5-yl)pyrrolidin-3-yl)methyl)piperidin-4-yl)phenyl)amino)-3-((R)-3-(3-methyl-2-oxoimidazolin-1-yl)piperidin-1-yl)-1,2,4-triazin-6-carboxamide] displayed a DC50 of less than 1 nM. Further, the IC50 in the data set on OCI-LY10 cells was less than 0.06 nM; with Mino cells, 2.99 nM. The half-life at 0.97 µg/mL in data set [1] amounted to 55.6 min.

On to `CN1CCN([C@@H]2CCCN(c3nnc(C(N)=O)c(Nc4ccc(C5CCN(CC6CCN(c7ccc8c(c7)C(=O)N(C7CCC(=O)NC7=O)C8=O)C6)CC5)c(F)c4)n3)C2)C1=O` (stereo partly drawn) [Compound 128, 5-((4-(1-((1-(2-(2,6-dioxopiperidin-3-yl)-1,3-dioxoisoindolin-5-yl)pyrrolidin-3-yl)methyl)piperidin-4-yl)-3-fluorophenyl)amino)-3-((R)-3-(3-methyl-2-oxoimidazolin-1-yl)piperidin-1-yl)-1,2,4-triazin-6-carboxamide], for which the DC50 on BTK was less than 1 nM. Further, the figures for the IC50 in the data set on OCI-LY10 cells and in the data set with Mino cells were 0.37 nM and 1.93 nM, respectively. In data set [1], the half-life at 0.97 µg/mL was determined as 43.2 min.

`CN1CCN([C@@H]2CCCN(c3nnc(C(N)=O)c(Nc4ccc(N5CCN(CC6CCN(c7ccc8c(c7)C(=O)N(C7CCC(=O)NC7=O)C8=O)C6)CC5)c(Cl)c4)n3)C2)C1=O` (stereo partly drawn) [Compound 133, 5-((3-chloro-4-(4-((1-(2-(2,6-dioxopiperidin-3-yl)-1,3-dioxoisoindolin-5-yl)pyrrolidin-3-yl)methyl)piperazin-1-yl)phenyl)amino)-3-((R)-3-(3-methyl-2-oxoimidazolin-1-yl)piperidin-1-yl)-1,2,4-triazin-6-carboxamide] displayed a DC50 on BTK of less than 1 nM. The figures for the 50% inhibitory concentration (IC50) with OCI-LY10 cells and in the data set on Mino cells were 0.43 nM and 3.91 nM, respectively. Further, the half-life at 0.97 µg/mL in data set [1] turned out to be 31.7 min.

The compound `NC(=O)c1nnc(N2CCC[C@@H](N3C(=O)CCC3=O)C2)nc1Nc1ccc(C2CCN(CC3CCN(c4ccc5c(c4)C(=O)N(C4CCC(=O)NC4=O)C5=O)CC3)CC2)cc1` (stereo partly drawn) [Compound 135, 5-((4-(1-((1-(2-(2,6-dioxopiperidin-3-yl)-1,3-dioxoisoindolin-5-yl)piperidin-4-yl)methyl)piperidin-4-yl)phenyl)amino)-3-((R)-3-(2,5-dioxopyrrolidin-1-yl)piperidin-1-yl)-1,2,4-triazin-6-carboxamide] displayed a half-maximal degradation concentration (DC50) at BTK of less than 1 nM. Moreover, the concentration for half-maximal inhibition (IC50) worked out at 0.11 nM in the data set with OCI-LY10 cells and 1.36 nM in the data set on Mino cells. For the same compound, the half-life at 0.97 µg/mL in data set [1] came out at 25 min.

On to `NC(=O)c1nnc(N2CCC[C@@H](N3C(=O)CCC3=O)C2)nc1Nc1ccc(C2CCN(CC3CCN(c4ccc5c(c4)C(=O)N(C4CCC(=O)NC4=O)C5=O)C3)CC2)cc1` (stereo partly drawn) [Compound 136, 5-((4-(1-((1-(2-(2,6-dioxopiperidin-3-yl)-1,3-dioxoisoindolin-5-yl)pyrrolidin-3-yl)methyl)piperidin-4-yl)phenyl)amino)-3-((R)-3-(2,5-dioxopyrrolidin-1-yl)piperidin-1-yl)-1,2,4-triazin-6-carboxamide], for which the DC50 at BTK was less than 1 nM. Besides, the figures for the IC50 in the data set with OCI-LY10 cells and in the data set with Mino cells were 0.79 nM and 1.61 nM, respectively. The half-life at 0.97 µg/mL in data set [1] came out at 24 min.

At BTK, `CN1C(=O)N([C@@H]2CCCN(c3nnc(C(N)=O)c(Nc4ccc(C5CCN(CC6CCN(c7ccc8c(c7)C(=O)N(C7CCC(=O)NC7=O)C8=O)C6)CC5)cc4)n3)C2)C(=O)C12CC2` (stereo partly drawn) [Compound 137, 5-((4-(1-((1-(2-(2,6-dioxopiperidin-3-yl)-1,3-dioxoisoindolin-5-yl)pyrrolidin-3-yl)methyl)piperidin-4-yl)phenyl)amino)-3-((R)-3-(4-methyl-5,7-dioxo-4,6-diazaspiro[2.4]heptan-6-yl)piperidin-1-yl)-1,2,4-triazin-6-carboxamide] registered a 50% degradation concentration (DC50) of less than 1 nM. Moreover, the values for the IC50 in the data set on OCI-LY10 cells and in the data set with Mino cells were 0.25 nM and 3.92 nM, respectively. In addition, in data set [1], the half-life at 0.97 µg/mL amounted to 20 min.

At BTK, `NC(=O)c1nnc(N2CCC[C@@H](N3CCN(CC(F)(F)F)C3=O)C2)nc1Nc1ccc(C2CCN(CC3CCN(c4ccc5c(c4)C(=O)N(C4CCC(=O)NC4=O)C5=O)C3)CC2)cc1` (stereo partly drawn) [Compound 140, 5-((4-(1-((1-(2-(2,6-dioxopiperidin-3-yl)-1,3-dioxoisoindolin-5-yl)pyrrolidin-3-yl)methyl)piperidin-4-yl)phenyl)amino)-3-((R)-3-(2-oxo-3-(2,2,2-trifluoroethyl)imidazolin-1-yl)piperidin-1-yl)-1,2,4-triazin-6-carboxamide] came in with a DC50 of less than 1 nM. Further, the IC50 worked out at 0.47 nM with OCI-LY10 cells and 3.46 nM in the data set on Mino cells. Moreover, the half-life at 0.97 µg/mL in data set [1] was 26.3 min.

On BTK, `CN1CCN([C@@H]2CCCN(c3nnc(C(N)=O)c(Nc4ccc(N5CCN(CC6CCN(c7ccc(C(=O)NC8CCC(=O)NC8=O)cn7)C6)CC5)c(F)c4)n3)C2)C1=O` (stereo partly drawn) [Compound 174, 5-((4-(4-((1-(5-((2,6-dioxopiperidin-3-yl)carbamoyl)pyridin-2-yl)pyrrolidin-3-yl)methyl)piperazin-1-yl)-3-fluorophenyl)amino)-3-((R)-3-(3-methyl-2-oxoimidazolidin-1-yl)piperidin-1-yl)-1,2,4-triazin-6-carboxamide] returned a DC50 of less than 1 nM. This compound also came in with an IC50 in the data set on OCI-LY10 cells of 1.03 nM. In addition, in data set [1], the half-life at 0.97 µg/mL was more than 30 min.

Consider `COc1cc(N2CCC(CN3CCN(c4ccc(Nc5nc(N6CCC[C@@H](N7CCN(C)C7=O)C6)nnc5C(N)=O)cc4F)CC3)CC2)ccc1C(=O)NC1CCC(=O)NC1=O` (stereo partly drawn) [Compound 181, 5-((4-(4-((1-(4-((2,6-dioxopiperidin-3-yl)carbamoyl)-3-methoxyphenyl)piperidin-4-yl)methyl)piperazin-1-yl)-3-fluorophenyl)amino)-3-((R)-3-(3-methyl-2-oxoimidazolidin-1-yl)piperidin-1-yl)-1,2,4-triazin-6-carboxamide], for which the DC50 at BTK was less than 1 nM. The compound also showed an IC50 in the data set with OCI-LY10 cells of 0.78 nM. The half-life at 0.97 µg/mL in data set [1] was more than 30 min.

`CN1CCN([C@@H]2CCCN(c3nnc(C(N)=O)c(Nc4ccc(N5CCN(CC6CCN(c7ccc(N8CCC(=O)NC8=O)c(F)c7)CC6)CC5)c(F)c4)n3)C2)C1=O` [Compound 184, (R)-5-((4-(4-((1-(4-(2,4-dioxotetrahydropyrimidin-1(2H)-yl)-3-fluorophenyl)piperidin-4-yl)methyl)piperazin-1-yl)-3-fluorophenyl)amino)-3-(3-(3-methyl-2-oxoimidazolidin-1-yl)piperidin-1-yl)-1,2,4-triazin-6-carboxamide]: at BTK, the DC50 was less than 1 nM. In the data set with OCI-LY10 cells, half-maximal inhibition (IC50) was put at 1.56 nM. Also, in data set [1], the half-life at 0.97 µg/mL is more than 30 min.

Regarding `CN1CCN([C@@H]2CCCN(c3nnc(C(N)=O)c(Nc4ccc(N5CCN(CC6CCN(c7ccc(NC8CCC(=O)NC8=O)c(F)c7)CC6)CC5)c(F)c4)n3)C2)C1=O` (stereo partly drawn) [Compound 205, 5-((4-(4-((1-(4-((2,6-dioxopiperidin-3-yl)amino)-3-fluorophenyl)piperidin-4-yl)methyl)piperazin-1-yl)-3-fluorophenyl)amino)-3-((R)-3-(3-methyl-2-oxoimidazolidin-1-yl)piperidin-1-yl)-1,2,4-triazin-6-carboxamide], on BTK, the DC50 was less than 1 nM. For the same compound, the IC50 in the data set with OCI-LY10 cells is 0.57 nM. The half-life at 0.97 µg/mL in data set [1] is more than 30 min.

The compound `CN1CCN([C@@H]2CCCN(c3nnc(C(N)=O)c(Nc4ccc(N5CCN(CC6CCN(c7ccc8c9c([nH]c8c7)C(=O)N(C7CCC(=O)NC7=O)C9)CC6)CC5)c(F)c4)n3)C2)C1=O` (stereo partly drawn) [Compound 222, 5-((4-(4-((1-(2-(2,6-dioxopiperidin-3-yl)-3-oxo-1,2,3,4-tetrahydropyrrolo[3,4-b]indol-6-yl)piperidin-4-yl)methyl)piperazin-1-yl)-3-fluorophenyl)amino)-3-((R)-3-(3-methyl-2-oxoimidazolidin-1-yl)piperidin-1-yl)-1,2,4-triazin-6-carboxamide] gave a DC50 on BTK of less than 1 nM. This compound also displayed an IC50 with Mino cells of 4.15 nM. Also, the half-life at 0.97 µg/mL in data set [1] was more than 30 min.

In turn, `CN1CCN([C@@H]2CCCN(c3nnc(C(N)=O)c(Nc4ccc(N5CCN(CC6CCN(c7ccc8c(=O)n(C9CCC(=O)NC9=O)ccc8c7)CC6)CC5)c(F)c4)n3)C2)C1=O` (stereo partly drawn) [Compound 232, 5-((4-(4-((1-(2-(2,6-dioxopiperidin-3-yl)-1-oxo-1,2-dihydroisoquinolin-6-yl)piperidin-4-yl)methyl)piperazin-1-yl)-3-fluorophenyl)amino)-3-((R)-3-(3-methyl-2-oxoimidazolidin-1-yl)piperidin-1-yl)-1,2,4-triazin-6-carboxamide] gave a DC50 at BTK of less than 1 nM. In the data set on OCI-LY10 cells, 0.83 nM corresponded to half-maximal inhibition (IC50). Further, the half-life at 0.97 µg/mL in data set [1] is more than 30 min.

The term DC50 denotes the concentration at which degradation of the target reaches its halfway point. A high value points to degradation only at high concentration. By IC50 is commonly meant the concentration needed to halve the response being measured. A lower IC50 goes with greater potency in that assay.
